In EPA's CvTdb concentration-time database:

What was measured:
Rat [1] = test: concentration in liver after dosing; conditions: oral
Rat [2] = test: concentration in liver after dosing; conditions: 48 h; dosed: Perfluorooctanoic acid; 80 mg/kg; oral; Female; Harlan Sprague Dawley
Rat [3] = test: concentration in kidney after dosing; conditions: 6 h; dosed: Perfluorooctanoic acid; 80 mg/kg; oral; Female; Harlan Sprague Dawley
Rat [4] = test: concentration in liver after dosing; conditions: 12 h; dosed: Fluorotelomer alcohol 8+2; 24 mg/kg; oral; Male; Harlan Sprague Dawley
Rat [5] = test: concentration in kidney after dosing; conditions: oral
Rat [6] = test: concentration in kidney after dosing; conditions: 12 h; dosed: Perfluorooctanoic acid; 80 mg/kg; oral; Female; Harlan Sprague Dawley
Rat [7] = test: concentration in plasma after dosing
Rat [8] = test: concentration in brain after dosing; conditions: oral, Harlan Sprague Dawley

O=C(O)C(F)(F)C(F)(F)C(F)(F)C(F)(F)C(F)(F)C(F)(F)C(F)(F)F [Perfluorooctanoic acid]
Conditions | concentration in brain [ng/g] | concentration in kidney [ng/g] | concentration in liver [ng/g]
Rat [1], 0.5 h, dosed: Fluorotelomer alcohol 8+2, 24 mg/kg, Male, Harlan Sprague Dawley | – | – | 325
Rat [1], 0.5 h, dosed: Fluorotelomer alcohol 8+2, 24 mg/kg, Male, Harlan Sprague Dawley - this seems too small | – | – | 211
Rat [1], 0.5 h, dosed: Fluorotelomer alcohol 8+2, 80 mg/kg, Female, Harlan Sprague Dawley | – | – | 434
Rat [1], 1 h, dosed: Fluorotelomer alcohol 8+2, 24 mg/kg, Male, Harlan Sprague Dawley | – | – | 751
Rat [1], 1 h, dosed: Fluorotelomer alcohol 8+2, 80 mg/kg, Female, Harlan Sprague Dawley | – | – | 816
Rat [1], 3 h, dosed: Fluorotelomer alcohol 8+2, 24 mg/kg, Male, Harlan Sprague Dawley | – | – | 1150
Rat [1], 3 h, dosed: Fluorotelomer alcohol 8+2, 80 mg/kg, Female, Harlan Sprague Dawley | – | – | 1540
Rat [1], 6 h, dosed: Fluorotelomer alcohol 8+2, 24 mg/kg, Male, Harlan Sprague Dawley | – | – | 1460
Rat [1], 6 h, dosed: Fluorotelomer alcohol 8+2, 80 mg/kg, Female, Harlan Sprague Dawley | – | – | 1970
Rat [1], 12 h, dosed: Fluorotelomer alcohol 8+2, 24 mg/kg, Male, Harlan Sprague Dawley | – | – | 2000
Rat [1], 12 h, dosed: Fluorotelomer alcohol 8+2, 80 mg/kg, Female, Harlan Sprague Dawley | – | – | 701
Rat [5], 0.5 h, dosed: Fluorotelomer alcohol 8+2, 80 mg/kg, Female, Harlan Sprague Dawley | – | 284 | –
Rat [5], 1 h, dosed: Fluorotelomer alcohol 8+2, 24 mg/kg, Male, Harlan Sprague Dawley | – | 190 | –
Rat [5], 1 h, dosed: Fluorotelomer alcohol 8+2, 80 mg/kg, Female, Harlan Sprague Dawley | – | 677 | –
Rat [5], 3 h, dosed: Fluorotelomer alcohol 8+2, 24 mg/kg, Male, Harlan Sprague Dawley | – | 270 | –
Rat [5], 3 h, dosed: Fluorotelomer alcohol 8+2, 80 mg/kg, Female, Harlan Sprague Dawley | – | 1260 | –
Rat [5], 6 h, dosed: Fluorotelomer alcohol 8+2, 24 mg/kg, Male, Harlan Sprague Dawley | – | 243 | –
Rat [5], 6 h, dosed: Fluorotelomer alcohol 8+2, 80 mg/kg, Female, Harlan Sprague Dawley | – | 2480 | –
Rat [5], 12 h, dosed: Fluorotelomer alcohol 8+2, 24 mg/kg, Male, Harlan Sprague Dawley | – | 419 | –
Rat [5], 12 h, dosed: Fluorotelomer alcohol 8+2, 80 mg/kg, Female, Harlan Sprague Dawley | – | 874 | –
Rat [8], 3 h, dosed: Perfluorooctanoic acid, 12 mg/kg, Male | 1300 | – | –
Rat [8], 3 h, dosed: Perfluorooctanoic acid, 80 mg/kg, Female | 916 | – | –
Rat [8], 6 h, dosed: Perfluorooctanoic acid, 12 mg/kg, Male | 1140 | – | –
Rat [8], 6 h, dosed: Perfluorooctanoic acid, 80 mg/kg, Female | 4050 | – | –
Rat [8], 12 h, dosed: Perfluorooctanoic acid, 12 mg/kg, Male | 1390 | – | –
Rat [8], 12 h, dosed: Perfluorooctanoic acid, 80 mg/kg, Female | 1360 | – | –
Rat [8], 24 h, dosed: Perfluorooctanoic acid, 12 mg/kg, Male | 1080 | – | –
Rat [8], 192 h, dosed: Perfluorooctanoic acid, 12 mg/kg, Male | 584 | – | –

Conditions | concentration in kidney [ng/g] | concentration in liver [ng/g] | concentration in plasma [ng/mL]
Rat [1], 3 h, dosed: Perfluorooctanoic acid, 12 mg/kg, Male, Harlan Sprague Dawley | – | 49900 | –
Rat [1], 3 h, dosed: Perfluorooctanoic acid, 80 mg/kg, Female, Harlan Sprague Dawley | – | 35300 | –
Rat [1], 6 h, dosed: Perfluorooctanoic acid, 12 mg/kg, Male, Harlan Sprague Dawley | – | 51000 | –
Rat [1], 6 h, dosed: Perfluorooctanoic acid, 80 mg/kg, Female, Harlan Sprague Dawley | – | 197000 | –
Rat [1], 12 h, dosed: Perfluorooctanoic acid, 12 mg/kg, Male, Harlan Sprague Dawley | – | 65600 | –
Rat [1], 12 h, dosed: Perfluorooctanoic acid, 80 mg/kg, Female, Harlan Sprague Dawley | – | 52000 | –
Rat [1], 24 h, dosed: Perfluorooctanoic acid, 12 mg/kg, Male, Harlan Sprague Dawley | – | 64800 | –
Rat [1], 24 h, dosed: Perfluorooctanoic acid, 80 mg/kg, Female, Harlan Sprague Dawley | – | 7890 | –
Rat [1], 48 h, dosed: Perfluorooctanoic acid, 80 mg/kg, Female, Harlan Sprague Dawley | – | 573 | –
Rat [1], 192 h, dosed: Perfluorooctanoic acid, 12 mg/kg, Male, Harlan Sprague Dawley | – | 48600 | –
Rat [1], 528 h, dosed: Perfluorooctanoic acid, 12 mg/kg, Male, Harlan Sprague Dawley | – | 14900 | –
Rat [1], 528 h, dosed: Perfluorooctanoic acid, 12 mg/kg, Male, Harlan Sprague Dawley - this seems too small | – | 22600 | –
Rat [1], 1200 h, dosed: Perfluorooctanoic acid, 12 mg/kg, Male, Harlan Sprague Dawley | – | 2160 | –
Rat [5], 3 h, dosed: Perfluorooctanoic acid, 12 mg/kg, Male, Harlan Sprague Dawley | 42500 | – | –
Rat [5], 3 h, dosed: Perfluorooctanoic acid, 80 mg/kg, Female, Harlan Sprague Dawley | 70300 | – | –
Rat [5], 6 h, dosed: Perfluorooctanoic acid, 12 mg/kg, Male, Harlan Sprague Dawley | 25600 | – | –
Rat [5], 6 h, dosed: Perfluorooctanoic acid, 80 mg/kg, Female, Harlan Sprague Dawley | 263000 | – | –
Rat [5], 12 h, dosed: Perfluorooctanoic acid, 12 mg/kg, Male, Harlan Sprague Dawley | 36200 | – | –
Rat [5], 12 h, dosed: Perfluorooctanoic acid, 80 mg/kg, Female, Harlan Sprague Dawley | 61600 | – | –
Rat [5], 24 h, dosed: Perfluorooctanoic acid, 12 mg/kg, Male, Harlan Sprague Dawley | 30400 | – | –
Rat [5], 24 h, dosed: Perfluorooctanoic acid, 80 mg/kg, Female, Harlan Sprague Dawley | 11600 | – | –
Rat [5], 48 h, dosed: Perfluorooctanoic acid, 80 mg/kg, Female, Harlan Sprague Dawley | 541 | – | –
Rat [5], 192 h, dosed: Perfluorooctanoic acid, 12 mg/kg, Male, Harlan Sprague Dawley | 20300 | – | –
Rat [5], 528 h, dosed: Perfluorooctanoic acid, 12 mg/kg, Male, Harlan Sprague Dawley | 3900 | – | –
Rat [5], 528 h, dosed: Perfluorooctanoic acid, 12 mg/kg, Male, Harlan Sprague Dawley - this seems too small | 6140 | – | –
Rat [5], 1200 h, dosed: Perfluorooctanoic acid, 12 mg/kg, Male, Harlan Sprague Dawley | 574 | – | –
Rat [7], 0.25 h, dosed: 678-39-7, 12 mg/kg, iv, Male, F344 | – | – | 184
Rat [7], 0.25 h, dosed: 678-39-7, 40 mg/kg, iv, Male, F344 | – | – | 257000
Rat [7], 0.25 h, dosed: Fluorotelomer alcohol 8+2, 12 mg/kg, oral, Male, Harlan Sprague Dawley | – | – | 14.2
Rat [7], 0.5 h, dosed: 678-39-7, 12 mg/kg, iv, Male, F344 | – | – | 282
Rat [7], 0.5 h, dosed: 678-39-7, 40 mg/kg, iv, Female, Harlan Sprague-Dawley | – | – | 1570
Rat [7], 0.5 h, dosed: 678-39-7, 40 mg/kg, iv, Male, F344 | – | – | 1510
Rat [7], 0.5 h, dosed: Fluorotelomer alcohol 8+2, 12 mg/kg, oral, Male, Harlan Sprague Dawley | – | – | 68.8
Rat [7], 0.75 h, dosed: 678-39-7, 12 mg/kg, iv, Male, F344 | – | – | 203
Rat [7], 0.75 h, dosed: 678-39-7, 40 mg/kg, iv, Female, Harlan Sprague-Dawley | – | – | 1860
Rat [7], 0.75 h, dosed: Fluorotelomer alcohol 8+2, 12 mg/kg, oral, Male, Harlan Sprague Dawley | – | – | 159
Rat [7], 1 h, dosed: 678-39-7, 12 mg/kg, iv, Male, F344 | – | – | 396
Rat [7], 1 h, dosed: 678-39-7, 40 mg/kg, iv, Female, Harlan Sprague-Dawley | – | – | 2280
Rat [7], 3 h, dosed: 678-39-7, 12 mg/kg, iv, Male, F344 | – | – | 478
Rat [7], 3 h, dosed: 678-39-7, 40 mg/kg, iv, Male, F344 | – | – | 2030
Rat [7], 3 h, dosed: Fluorotelomer alcohol 8+2, 12 mg/kg, oral, Male, Harlan Sprague Dawley | – | – | 423
Rat [7], 5 min, dosed: 678-39-7, 12 mg/kg, iv, Male, F344 | – | – | 29.7
Rat [7], 5 min, dosed: 678-39-7, 40 mg/kg, iv, Male, F344 | – | – | 189
Rat [7], 6 h, dosed: 678-39-7, 12 mg/kg, iv, Male, F344 | – | – | 630
Rat [7], 6 h, dosed: Fluorotelomer alcohol 8+2, 12 mg/kg, oral, Male, Harlan Sprague Dawley | – | – | 634
Rat [7], 9 h, dosed: 678-39-7, 12 mg/kg, iv, Male, F344 | – | – | 607
Rat [7], 9 h, dosed: 678-39-7, 40 mg/kg, iv, Female, Harlan Sprague-Dawley | – | – | 622
Rat [7], 9 h, dosed: 678-39-7, 40 mg/kg, iv, Male, F344 | – | – | 702
Rat [7], 9 h, dosed: Fluorotelomer alcohol 8+2, 12 mg/kg, oral, Male, Harlan Sprague Dawley | – | – | 578
Rat [7], 12 h, dosed: 678-39-7, 12 mg/kg, iv, Male, F344 | – | – | 364
Rat [7], 12 h, dosed: 678-39-7, 40 mg/kg, iv, Female, Harlan Sprague-Dawley | – | – | 353
Rat [7], 12 h, dosed: 678-39-7, 40 mg/kg, iv, Male, F344 | – | – | 12300
Rat [7], 12 h, dosed: Fluorotelomer alcohol 8+2, 12 mg/kg, oral, Male, Harlan Sprague Dawley | – | – | 507
Rat [7], 24 h, dosed: 678-39-7, 12 mg/kg, iv, Male, F344 | – | – | 460
Rat [7], 24 h, dosed: 678-39-7, 40 mg/kg, iv, Female, Harlan Sprague-Dawley | – | – | 52.2
Rat [7], 48 h, dosed: Fluorotelomer alcohol 8+2, 12 mg/kg, oral, Male, Harlan Sprague Dawley | – | – | 536
Rat [7], 192 h, dosed: 678-39-7, 12 mg/kg, iv, Male, F344 | – | – | 260
Rat [7], 192 h, dosed: Fluorotelomer alcohol 8+2, 12 mg/kg, oral, Male, Harlan Sprague Dawley | – | – | 356

Conditions | concentration in kidney [ng/g] | concentration in liver [ng/g]
Rat [2] | – | 616
Rat [3] | 178000 | –
Rat [4] | – | 1700
Rat [6] | 93700 | –

Conditions | concentration in brain [ng/g]
Rat [8], 6 h, dosed: Fluorotelomer alcohol 8+2, 80 mg/kg, Female | 224
